Earlier results in patent publication US6723506B2, “Method of identifying PAX8-PPAR gamma-nucleic acid molecules” (Brigham and Women's Hospital, priority 2000, dated 2004).

System: PML-RAR (retinoic acid receptor α) translocation
Conditions: patients harboring the PML-RAR translocation

SMILES: CC1=C(/C=C/C(C)=C/C=C/C(C)=C/C(=O)O)C(C)(C)CCC1 [all-trans retinoic acid]
- remission in APML patients: induces remission in nearly every patient
